Results published in patent US12410211B2, “V1A receptor partial agonist and method of use” (PharmaIN Corporation, priority 2020, dated 2025).
Like-named read-outs stand apart in the source and are kept apart here. Marks after values point to notes of the source that are not given here. Where a SMILES comes first, the peptide text is derived from it. Bridges are numbered along the chain shown (N, C = ends). [ ]: non-standard residue; d: D form. Aad = N[C@@H](CCCC(=O)O)C(=O)O; Dap = NC[C@H](N)C(=O)O; Mpa = O=C(O)CCS

Assays:
[1] = Therapeutic index (NOAEL/NOEL): paleness, lethargy, ataxia observation in Sprague-Dawley rats (Example 7); assay type: in vivo; conditions: for NOAEL at 24 h: male, Sprague-Dawley; for NOAEL at 24 h / NOAEL: read-out: Highest dose with no-observed adverse effect level without lethargy (NOAEL)
Source text: As used herein, the term “therapeutic index” (TI; also referred to as therapeutic ratio) is a quantitative measure of the relative safety of a drug. […] For the purpose of the present application, lethargy is a lack of energy and/or sleepiness which is visually observed in rats as a lack of mobility, such as a lack of mobility even in the presence of human activity. For the purpose of present specification, peripheral vasoconstriction is visually observed by a paleness of the extremities (e.g., skin of hands, feet, ears, and lips). In rats, peripheral vasoconstriction is determined by a side-by-side comparison of ear paleness in treated subjects (e.g., Sprague Dawley rats, a white rat with easily visualizable changes in redness/paleness) vs. untreated control subjects. The V1a agonist (or partial agonist) with a high therapeutic index will have a better safety profile than that with a low therapeutic index by providing a wider margin of safety for dosing during the treatment of the disease. This NOAEL/NOEL ratio, being a quantitative measure of the relative safety, is a comparison of the amount of a therapeutic agent that causes the therapeutic effect (useful effect, vasoconstriction for the purpose of the present specification) to the amount that causes toxicity. A V1a agonist that causes severe vasoconstriction will affect not only the peripheral vessels, with several layer of smooth muscles, but also other vessels present in other organs (e.g., heart, lungs, kidney, brain) and this will result in observed lethargy and eventually ataxia. A partial agonist is less likely to reach such an extreme level of vasoconstriction and is believed to have a higher therapeutic index.
In this study, 8 to 10 weeks male Sprague-Dawley rats (Charles River; Wilmington, MA) under isoflurane anesthesia (n=3 or 6) were intravenously (IV) or subcutaneously (SC) injected or administered with various test articles. Prior to administration of test articles, the injection area was clipped free of fur, to allow for clear visualization of the dose site, and animal weight was measured and recorded. Animals were housed two per cage. […] Lethargy is when the animal eyes cannot fully open and is associated deep breathing and limited of movement even in the presence of human.

[2] = target: T1, V1a receptor (Homo sapiens, UniProt P37288); assay: V1a Human Vasopressin GPCR Cell Based Agonist Calcium Flux Assay; conditions: for Emax: read-out: V1a Highest agonist effect (% of AVP)
T1 construct: host or cells: CHO cells
Description: Peptides of Formula (I) include Mpa-Tyr-Phe-Hgn-Asn-Cys-Pro-Lys(X)a-Gly-NH2 [SEQ ID NO. 24]; where (X)a is a peptide with “a” residues and each residue X is independently selected from Gly, and a D- or L-amino acid version of Ala, Lys, Orn, Glu, and Asp, where “a” is 0-10. V1a Human Vasopressin GPCR Cell Based Agonist Calcium Flux Assay were conducted at Eurofins Cerep SA (France) on a fee for service basis. Human recombinant CHO cells expressing human V1 receptors were distributed in microplates. Intracellular calcium signal was detected by fluorimetry, and the signal was acquired before and after addition of a known agonist concentration. The following agonist concentrations were tested (nM); 0.0128, 0.064, 0.32, 1.6, 8, 40, 200, and 1,000. […] All assays were performed in duplicate. Changes in fluorescence intensity reflected changes in the concentration of free cytosolic calcium. […] The half-maximal effective concentration (EC50) was determined by a non-linear regression analysis of the concentration-response curves generated with mean replicate values using Hill equation curve fitting (Cerep, I'Evescault, France).
V1a Human Vasopressin GPCR Cell Based Agonist Calcium Flux Assay were conducted using human recombinant CHO cells expressing human V1 receptor. Briefly, human recombinant CHO cells expressing human V1 receptor were distributed in microplates at 4.5×10^4 cells/well. The fluorescent probe (Fluo4 Direct, Invitrogen) mixed with probenicid in HBSS buffer (Invitrogen) complemented with 20 mM HEPES (Invitrogen) (pH 7.4) is then added into each well and equilibrated with the cells for 60 min at 37° C. then 15 min at 22° C. Thereafter, the assay plates are positioned in a microplate reader (CellLux, PerkinElmer) which is used for the addition of the test compound, reference agonist or HBSS buffer (basal control), and the measurements of changes in fluorescence intensity which varies proportionally to the free cytosolic Ca^2+ ion concentration. The following agonist concentrations were tested (nM), 0.0128, 0.064, 0.32, 1.6, 8, 40, 200, and 1,000. […] All assays were performed in duplicate. Changes in fluorescence intensity reflected changes in the concentration of free cytosolic calcium. […] Referring to FIG. 3 and Table 4, the half-maximal effective concentration (EC50) was determined by non-linear regression analysis of the concentration-response curves generated with mean replicate values using Hill equation curve fitting (Cerep, I'Evescault, France).

[3] = S.C., at the Marked adverse effect dose
[4] = S.C., at the Mild adverse effect dose
[5] = Table 3, cells printed in μM, read-out: Estimated V1a EC50, n = 2
[6] = Table 3, CHO cells expressing human V1 receptor, read-out: Estimated V1a EC50 (nM), n = 2

T1 sequence (P37288 whole entry): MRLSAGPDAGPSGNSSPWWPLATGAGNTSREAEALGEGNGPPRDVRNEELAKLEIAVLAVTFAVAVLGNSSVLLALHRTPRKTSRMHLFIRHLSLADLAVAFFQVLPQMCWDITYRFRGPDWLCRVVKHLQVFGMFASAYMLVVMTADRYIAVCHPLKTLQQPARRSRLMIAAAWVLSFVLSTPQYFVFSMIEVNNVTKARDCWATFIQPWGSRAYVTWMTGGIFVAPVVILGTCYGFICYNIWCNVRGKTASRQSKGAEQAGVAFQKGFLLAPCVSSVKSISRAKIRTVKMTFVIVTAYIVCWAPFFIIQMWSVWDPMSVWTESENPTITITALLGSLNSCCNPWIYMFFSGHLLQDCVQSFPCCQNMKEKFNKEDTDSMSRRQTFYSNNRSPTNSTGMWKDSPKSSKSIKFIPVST

SMILES	Paleness (Duration, hrs; SD) [1, 3]	Paleness (Duration, hrs; SD) [1, 4]	Paleness (Duration, hrs; SD) ([1]; S.C., at the NOAEL dose)	Paleness (Duration, hrs; SD) ([1]; S.C., at the NOEL dose)	Highest dose with no-observed effect level or paleness (NOEL) ([1]; S.C., rat) [mg/kg]	NOAEL/NOEL (therapeutic index) ([1]; S.C., rat)	NOAEL at 24 h ([1]; in vivo, sc, S.C., rat) [mg/kg]	Marked adverse effect (Lowest dose first showed Ataxia) ([1]; rat, in vivo, sc) [mg/kg]	Mild adverse effect (Lowest dose first showed Lethargy) ([1]; rat, in vivo, sc) [mg/kg]	bioactivity duration compared with terlipressin ([1]; remark in NOAEL/NOEL column) [x longer]	Emax ([2]; Table 3, n = 2) [%]	NOAEL ([1]; in vivo, sc, S.C., rat) [mg/kg]	Ataxia (duration, hrs; SD) ([1]; rat, in vivo, sc)	EC50 [2, 5] [µM]	EC50 [2, 6] [µM]	EC50 ([2]; FIG. 2 / FIG. 3 legend, n=2, read-out: EC50 for V1a receptor) [µM]	Emax ([2]; Table 4, n = 2) [%]	Marked adverse effect (Lowest dose first showed Ataxia) ([1]; S.C., rat) [mg/kg]	Mild adverse effect (Lowest dose first showed Lethargy) ([1]; S.C., rat) [mg/kg]	Lethargy (duration, hrs; SD) ([1]; rat, in vivo, sc)
NCCCC[C@H](NC(=O)[C@@H]1CCCN1C(=O)[C@@H]1CSSCCC(=O)N[C@@H](Cc2ccc(O)cc2)C(=O)N[C@@H](Cc2ccccc2)C(=O)N[C@@H](CCCC(N)=O)C(=O)N[C@@H](CC(N)=O)C(=O)N1)C(=O)NCC(N)=O [SEQ ID NO. 25, Mpa-Tyr-Phe-Hgn-Asn-Cys-Pro-Lys-Gly-NH2]	(4.9 ± 0.05) hrs	(5.66 ± 0.83) hrs	(3.78 ± 0.05) hrs	None observed	0.0015	10	0.015	0.15	0.05	3	42.8	–	–	–	–	–	–	–	–	–
NC[C@H](NC(=O)[C@@H]1CCCN1C(=O)[C@@H]1CSSCCC(=O)N[C@@H](Cc2ccc(O)cc2)C(=O)N[C@@H](Cc2ccccc2)C(=O)N[C@@H](CCCC(N)=O)C(=O)N[C@@H](CC(N)=O)C(=O)N1)C(=O)NCC(N)=O [SEQ ID NO. 17, Mpa-Tyr-Phe-Hgn-Asn-Cys-Pro-Dap-Gly-NH2] ([Mpa]YF[Aad](NH2)NCP[Dap]G-NH2; disulfide 1-6)	(>6.18)* hrs	(>5.92)* hrs	(6.11 ± 0.07) hrs	None observed	0.014	34	–	>9.95	4.78	–	3.5	0.478	None observed	> 10	–	–	–	–	–	–
NCC(=O)NCC(=O)NCCCC[C@H](NC(=O)[C@@H]1CCCN1C(=O)[C@@H]1CSSCCC(=O)N[C@@H](Cc2ccc(O)cc2)C(=O)N[C@@H](Cc2ccccc2)C(=O)N[C@@H](CCCC(N)=O)C(=O)N[C@@H](CC(N)=O)C(=O)N1)C(=O)NCC(N)=O [SEQ ID NO. 9, Mpa-Tyr-Phe-Hgn-Asn-Cys-Pro-Lys(X)a-Gly-NH2; (X)a = (Gly)2]	(>5.99)* hrs	(>6.04)* hrs	(5.74 ± 0.45) hrs	None Observed	0.0015	100	0.15	1.5	0.5	–	37	–	–	–	0.0382	–	–	–	–	–
NCC(=O)NCC(=O)NCC(=O)NCC(=O)NCC(=O)NCC(=O)NCC(=O)NCC(=O)NCC(=O)NCCCC[C@H](NC(=O)[C@@H]1CCCN1C(=O)[C@@H]1CSSCCC(=O)N[C@@H](Cc2ccc(O)cc2)C(=O)N[C@@H](Cc2ccccc2)C(=O)N[C@@H](CCC(N)=O)C(=O)N[C@@H](CC(N)=O)C(=O)N1)C(=O)NCC(N)=O [SEQ ID NO. 23, Mpa-Tyr-Phe-Gln-Asn-Cys-Pro-Lys(X)a-Gly-NH2; (X)a = (Gly)9]	(>6.46)* hrs	(6.23 ± 0.05) hrs	(>5.09)* hrs	None observed	0.0015	333	0.5	5.0	1.5	–	–	–	–	–	–	0.0126	55.9	–	–	–
NCC(=O)NCCCC[C@H](NC(=O)[C@@H]1CCCN1C(=O)[C@@H]1CSSCCC(=O)N[C@@H](Cc2ccc(O)cc2)C(=O)N[C@@H](Cc2ccccc2)C(=O)N[C@@H](CCCC(N)=O)C(=O)N[C@@H](CC(N)=O)C(=O)N1)C(=O)NCC(N)=O [SEQ ID NO. 8, Mpa-Tyr-Phe-Hgn-Asn-Cys-Pro-Lys(X)-Gly-NH2; X = Gly]	(>6.12)* hrs	(>6.12)* hrs	(6.20 ± 0.28) hrs	None Observed	0.0015	10	0.15	1.5	0.5	–	40.3	–	–	–	0.0253	–	–	–	–	–
NCCCC[C@@H](NC(=O)[C@@H]1CCCN1C(=O)[C@@H]1CSSCCC(=O)N[C@@H](Cc2ccc(O)cc2)C(=O)N[C@@H](Cc2ccccc2)C(=O)N[C@@H](CCCC(N)=O)C(=O)N[C@@H](CC(N)=O)C(=O)N1)C(=O)NCC(N)=O [SEQ ID NO. 18, Mpa-Tyr-Phe-Hgn-Asn-Cys-Pro-dLys-Gly-NH2]	–	–	–	–	0.005	30	–	1.5	0.5	–	0.2	0.15	–	> 10	–	–	–	–	–	–
NCCCCCCCCCCCC(=O)NCCCC[C@H](NC(=O)[C@@H]1CCCN1C(=O)[C@@H]1CSSCCC(=O)N[C@@H](Cc2ccc(O)cc2)C(=O)N[C@@H](Cc2ccccc2)C(=O)N[C@@H](CCCC(N)=O)C(=O)N[C@@H](CC(N)=O)C(=O)N1)C(=O)NCC(N)=O [SEQ ID NO. 19, Mpa-Tyr-Phe-Hgn-Asn-Cys-Pro-Lys(12-aminododecanoic acid)-Gly-NH2]	–	–	–	–	0.014	649 (Dose too	–	–	–	–	2.5	9.08	None Observed	> 10	–	–	–	>9.08	>9.08	None Observed
NCC(=O)NCC(=O)NCC(=O)NCC(=O)NCC(=O)NCC(=O)NCC(=O)NCCCC[C@H](NC(=O)[C@@H]1CCCN1C(=O)[C@@H]1CSSCCC(=O)N[C@@H](Cc2ccc(O)cc2)C(=O)N[C@@H](Cc2ccccc2)C(=O)N[C@@H](CCCC(N)=O)C(=O)N[C@@H](CC(N)=O)C(=O)N1)C(=O)NCC(N)=O [SEQ ID NO. 14, Mpa-Tyr-Phe-Hgn-Asn-Cys-Pro-Lys(X)a-Gly-NH2; (X)a = (Gly)7]	(>6.44)* hrs	(>6.39)* hrs	(5.86 ± 0.13) hrs	None Observed	0.0015	100	0.15	1.5	0.5	–	26.1	–	–	–	0.0309	–	–	–	–	–
